# Laboratory results from patent US10130652B2, “Anti-inflammatory compositions” (INDENA S.P.A., priority 2010, dated 2018).
# Marks after values point to notes of the source that are not given here.
# Test system: myeloperoxidase (MPO)
# Experiment: Myeloperoxidase (MPO) expression/activity inhibition in LPS-stimulated skin PMNs (ELISA on cell supernatants)
# Format: cell-based
# Details: human skin PMNs stimulated with LPS, positive reference at 0.1%, 6 hours of incubation
# Procedure: Tamarind Seed Polysaccharide (either alone and in combination with standardized botanical extracts) was tested for its ability to reduce inflammation cellular response through the measurement of the inhibition of myeloperoxidase (MPO) activity in polymorphonuclear neutrophils (PMNs). Inflammation, in particular during the acute phase, causes the migration of PMNs towards the inflammation site by chemotaxis. It is also known that the degree of MPO activity is directly proportional to the number of PMNs present in the tissue and to the inflammatory response. Thus, a reduction of the number of PMNs corresponds to a reduction in the activity of myeloperoxidase and it can he then concluded that the cellular response to inflammation is reduced accordingly.
# Human skin PMNs were cultivated in bacteriological Petri dishes with 100 mm diameter. Cell culture medium was RPMI-1640 supplemented with Penicillin (100 U/ml), Streptomycin (100 mcg/ml), L-glutamin (2 mM) and 10% heat-inactivated and filtered FCS (Foetal Calf Serum). PMNs were then stimulated with the addition of LPS (lipopolysaccharides) to the cultivation media. […]
# After 6 hours of incubation, the overall inhibition of myeloperoxidase (MPO) activity was quantified in the PMNs cell supernatants using an enzyme immunoassay kit (ELISA).
smiles,measurement,value
C[C@@H]1C[C@H]2[C@@H]3CCC4=CC(=O)C=C[C@]4(C)[C@@]3(F)[C@@H](O)C[C@]2(C)[C@@]1(O)C(=O)CO [Dexamethasone],MPO Inhibition of Expression (Δ % vs. basal),−30%*
